# Laboratory results: PubChem BioAssay AID194 (DTP/NCI, 2004)
# Values joined by “and” are separate entries in the source; they are usually repeats but may differ in a detail not shown here. Equal values may be shown once. Inconclusive results are not listed.
# Tested on: BDF1 mice, B16 melanoma s.c., survival/tumor T/C
# Test: NCI In Vivo Anticancer Drug Screen. Data for tumor model B16 Melanoma (subcutaneous) in B6D2F1 (BDF1) mice
# Method: The antitumor activity of compounds was measured in mice bearing transplantable tumors. Survival or tumor size were measured and the results are expressed as the measurement made in the treated group (T) divided by the measurement made in the vehicle treated control group (C). The tumor model used in this assay is B16 Melanoma (subcutaneous) in B6D2F1 (BDF1) mice
# [1] = endpoint: median survival time, dose: 100.0 mg/kg/injection, schedule: Q04DX003 (ip), vehicle: saline, higher = longer survival
# [2] = endpoint: median survival time, dose: 0.75 mg/kg/injection, schedule: Q01DX009 (ip), vehicle: saline, higher = longer survival
# [3] = endpoint: median survival time, dose: 3.0 mg/kg/injection, schedule: Q01DX009 (ip), vehicle: saline, higher = longer survival
# [4] = endpoint: median survival time, dose: 0.5 mg/kg/injection, schedule: Q01DX009 (ip), vehicle: saline with Tween-80, higher = longer survival
# [5] = endpoint: median survival time, dose: 1.0 mg/kg/injection, schedule: Q01DX009 (ip), vehicle: saline with Tween-80, higher = longer survival
# [6] = endpoint: median survival time, dose: 2.0 mg/kg/injection, schedule: Q01DX009 (ip), vehicle: saline with Tween-80, higher = longer survival
structure (smiles),measurement,setting,value
O=c1[nH]c(=O)n(C2CC(O)C(CO)O2)cc1F (centres undefined),T/C,"endpoint: median survival time, dose: 25.0 mg/kg/injection, schedule: Q01DX009 (ip), vehicle: saline with Tween-80, higher = longer survival",109 % of control
same,T/C,"endpoint: median survival time, dose: 100.0 mg/kg/injection, schedule: Q01DX009 (ip), vehicle: saline with Tween-80, higher = longer survival",122 % of control
same,T/C,"endpoint: median survival time, dose: 200.0 mg/kg/injection, schedule: Q01DX009 (ip), vehicle: saline with Tween-80, higher = longer survival",120 % of control
same,T/C,"endpoint: median survival time, dose: 200.0 mg/kg/injection, schedule: Q04DX003 (ip), vehicle: saline, higher = longer survival",112 % of control
same,T/C,"endpoint: median tumor weight (est.), dose: 25.0 mg/kg/injection, schedule: Q01DX009 (ip), vehicle: saline with Tween-80, higher = larger tumour",68 % of control
same,T/C,"endpoint: median tumor weight (est.), dose: 50.0 mg/kg/injection, schedule: Q01DX009 (ip), vehicle: saline with Tween-80, higher = larger tumour",59 % of control
same,T/C,"endpoint: median tumor weight (est.), dose: 50.0 mg/kg/injection, schedule: Q01DX009 (ip), vehicle: saline, higher = larger tumour",96 % of control and 220 % of control
same,T/C,"endpoint: median tumor weight (est.), dose: 100.0 mg/kg/injection, schedule: Q01DX009 (ip), vehicle: saline with Tween-80, higher = larger tumour",41 % of control
same,T/C,"endpoint: median tumor weight (est.), dose: 100.0 mg/kg/injection, schedule: Q01DX009 (ip), vehicle: saline, higher = larger tumour",49 % of control and 71 % of control
same,T/C,"endpoint: median tumor weight (est.), dose: 200.0 mg/kg/injection, schedule: Q01DX009 (ip), vehicle: saline, higher = larger tumour",55 % of control
c1ccc(-c2csc3c4ccccc4c4ccccc4[n+]23)cc1,T/C,"endpoint: median survival time, dose: 0.5 mg/kg/injection, schedule: Q01DX009 (ip), vehicle: suspension in saline, higher = longer survival",114 % of control
same,T/C,"endpoint: median survival time, dose: 1.0 mg/kg/injection, schedule: Q01DX009 (ip), vehicle: suspension in saline, higher = longer survival",124 % of control
Cc1cc(NC(=O)NCc2ccc(N3C(N)=NC(N)=NC3(C)C)cc2)ccc1S(=O)(=O)F,T/C,"endpoint: median survival time, dose: 50.0 mg/kg/injection, schedule: Q04DX003 (ip), vehicle: saline, higher = longer survival",106 % of control
same,T/C,[1],95 % of control
CC1OC(=O)C(C(C)C)NC(=O)C(C(C)C)OC(=O)C(C(C)C)NC(=O)C(C)OC(=O)C(C(C)C)NC(=O)C(C(C)C)OC(=O)C(C(C)C)NC(=O)C(C)OC(=O)C(C(C)C)NC(=O)C(C(C)C)OC(=O)C(C(C)C)NC1=O (centres undefined),T/C,"endpoint: median survival time, dose: 3.4 mg/kg/injection, schedule: Q01DX009 (ip), vehicle: saline with Tween-80, higher = longer survival",86 % of control
same,T/C,"endpoint: median survival time, dose: 5.0 mg/kg/injection, schedule: Q01DX009 (ip), vehicle: saline with Tween-80, higher = longer survival",86 % of control
same,T/C,"endpoint: median survival time, dose: 7.5 mg/kg/injection, schedule: Q01DX009 (ip), vehicle: saline with Tween-80, higher = longer survival",91 % of control
same,T/C,"endpoint: median survival time, dose: 15.0 mg/kg/injection, schedule: Q04DX003 (ip), vehicle: saline with Tween-80, higher = longer survival",86 % of control
same,T/C,"endpoint: median survival time, dose: 20.0 mg/kg/injection, schedule: Q04DX003 (ip), vehicle: saline with Tween-80, higher = longer survival",90 % of control
same,T/C,"endpoint: median survival time, dose: 30.0 mg/kg/injection, schedule: Q01DX001 (ip), vehicle: saline with Tween-80, higher = longer survival",86 % of control
same,T/C,"endpoint: median survival time, dose: 30.0 mg/kg/injection, schedule: Q04DX003 (ip), vehicle: saline with Tween-80, higher = longer survival",91 % of control
same,T/C,"endpoint: median survival time, dose: 45.0 mg/kg/injection, schedule: Q01DX001 (ip), vehicle: saline with Tween-80, higher = longer survival",97 % of control
CC1(C)N=C(N)N=C(N)N1c1ccc(OCCOc2ccc(S(=O)(=O)F)cc2)c(Cl)c1,T/C,"endpoint: median survival time, dose: 12.5 mg/kg/injection, schedule: Q04DX003 (ip), vehicle: saline, higher = longer survival",104 % of control
same,T/C,"endpoint: median survival time, dose: 25.0 mg/kg/injection, schedule: Q04DX003 (ip), vehicle: saline, higher = longer survival",104 % of control
same,T/C,[1],109 % of control
Nc1ccc(N(CCCl)CCN(CCCl)c2ccc(N)cc2)cc1,T/C,"endpoint: median survival time, dose: 0.36 mg/kg/injection, schedule: Q01DX009 (ip), vehicle: saline, higher = longer survival",124 % of control
same,T/C,[2],114 % of control
same,T/C,"endpoint: median survival time, dose: 1.5 mg/kg/injection, schedule: Q01DX009 (ip), vehicle: saline, higher = longer survival",103 % of control
same,T/C,[3],98 % of control
CNNCc1ccc(C(=O)NC(C)C)cc1,T/C,"endpoint: median survival time, dose: 40.0 mg/kg/injection, schedule: Q01DX009 (ip), vehicle: Klucel (hydroxypropylcellulose) (HPC), higher = longer survival",102 % of control
same,T/C,"endpoint: median survival time, dose: 80.0 mg/kg/injection, schedule: Q01DX009 (ip), vehicle: Klucel (hydroxypropylcellulose) (HPC), higher = longer survival",113 % of control
same,T/C,"endpoint: median survival time, dose: 160.0 mg/kg/injection, schedule: Q01DX009 (ip), vehicle: Klucel (hydroxypropylcellulose) (HPC), higher = longer survival",102 % of control and 115 % of control
same,T/C,"endpoint: median survival time, dose: 320.0 mg/kg/injection, schedule: Q01DX009 (ip), vehicle: Klucel (hydroxypropylcellulose) (HPC), higher = longer survival",95 % of control
COc1cccc2c1C(=O)c1c(O)c3c(c(O)c1C2=O)C[C@@](O)(C(=O)COC(=O)Cc1ccccc1)C[C@@H]3OC1CC(N)C(O)C(C)O1 (some centres undefined),T/C,[4],86 % of control
same,T/C,[5],88 % of control
same,T/C,[6],94 % of control
C[n+]1c2ccccc2c(Nc2ccc(NS(=O)(=O)CCCCN=C(N)N)cc2)c2ccc(N)cc21,T/C,"endpoint: median survival time, dose: 1.5 mg/kg/injection, schedule: Q01DX009 (sc), vehicle: saline, higher = longer survival",96 % of control
same,T/C,"endpoint: median survival time, dose: 3.0 mg/kg/injection, schedule: Q01DX009 (sc), vehicle: saline, higher = longer survival",112 % of control
same,T/C,"endpoint: median survival time, dose: 6.0 mg/kg/injection, schedule: Q01DX009 (sc), vehicle: saline, higher = longer survival",108 % of control
NC(=O)c1ccc[n+](Cc2c(Cl)cccc2Cl)c1,T/C,[2],106 % of control
same,T/C,[3],98 % of control
same,T/C,"endpoint: median survival time, dose: 6.0 mg/kg/injection, schedule: Q01DX009 (ip), vehicle: saline, higher = longer survival",102 % of control and 117 % of control
same,T/C,"endpoint: median survival time, dose: 12.0 mg/kg/injection, schedule: Q01DX009 (ip), vehicle: saline, higher = longer survival",106 % of control and 114 % of control
CCCCC(=O)OCC(=O)[C@]1(O)Cc2c(O)c3c(c(O)c2[C@@H](OC2CC(NC(=O)C(F)(F)F)C(O)C(C)O2)C1)C(=O)c1c(OC)cccc1C3=O (some centres undefined),T/C,"endpoint: median survival time, dose: 9.0 mg/kg/injection, schedule: Q01DX008 (ip), vehicle: distilled water + Tween-80, higher = longer survival",104 % of control
same,T/C,"endpoint: median survival time, dose: 13.0 mg/kg/injection, schedule: Q01DX008 (ip), vehicle: distilled water + Tween-80, higher = longer survival",118 % of control
same,T/C,"endpoint: median survival time, dose: 20.0 mg/kg/injection, schedule: Q01DX008 (ip), vehicle: distilled water + Tween-80, higher = longer survival",110 % of control
same,T/C,"endpoint: median survival time, dose: 30.0 mg/kg/injection, schedule: Q01DX008 (ip), vehicle: distilled water + Tween-80, higher = longer survival",124 % of control
CN(Cc1cnc2nc(N)nc(N)c2n1)c1ccc(C(=O)N[C@@H](CCC(=O)O)C(=O)O)cc1,T/C,[4],100 % of control
same,T/C,[5],100 % of control
same,T/C,[6],89 % of control
same,T/C,"endpoint: median tumor weight (est.), dose: 0.5 mg/kg/injection, schedule: Q01DX009 (ip), vehicle: saline with Tween-80, higher = larger tumour",173 % of control
same,T/C,"endpoint: median tumor weight (est.), dose: 1.0 mg/kg/injection, schedule: Q01DX009 (ip), vehicle: saline with Tween-80, higher = larger tumour",81 % of control
OCC1OC(n2cnc3c2NC=NC[C@H]3O)CC1O (some centres undefined),T/C,"endpoint: median survival time, dose: 0.05 mg/kg/injection, schedule: Q03HX024 (ip), vehicle: saline, higher = longer survival",90 % of control
same,T/C,"endpoint: median survival time, dose: 0.1 mg/kg/injection, schedule: Q03HX024 (ip), vehicle: saline, higher = longer survival",105 % of control
CNc1nc(N(C)C)nc(N(C)C)n1,T/C,"endpoint: median survival time, dose: 67.0 mg/kg/injection, schedule: Q01DX009 (ip), vehicle: water, higher = longer survival",112 % of control
same,T/C,"endpoint: median survival time, dose: 100.0 mg/kg/injection, schedule: Q04DX003 (ip), vehicle: water, higher = longer survival",96 % of control
same,T/C,"endpoint: median survival time, dose: 150.0 mg/kg/injection, schedule: Q04DX003 (ip), vehicle: water, higher = longer survival",95 % of control
same,T/C,"endpoint: median survival time, dose: 225.0 mg/kg/injection, schedule: Q04DX003 (ip), vehicle: water, higher = longer survival",90 % of control
CCCCC[C@H](O)/C=C/[C@@H]1[C@@H](C/C=C\CCCC(=O)O)[C@@H](O)C[C@H]1O,T/C,"endpoint: median survival time, dose: 2.5 mg/kg/injection, schedule: Q04DX002 (ip), vehicle: saline with Tween-80, higher = longer survival",89 % of control
same,T/C,"endpoint: median survival time, dose: 5.0 mg/kg/injection, schedule: Q04DX002 (ip), vehicle: saline with Tween-80, higher = longer survival",110 % of control
same,T/C,"endpoint: median survival time, dose: 10.0 mg/kg/injection, schedule: Q04DX002 (ip), vehicle: saline with Tween-80, higher = longer survival",106 % of control
same,T/C,"endpoint: median survival time, dose: 20.0 mg/kg/injection, schedule: Q04DX002 (ip), vehicle: saline with Tween-80, higher = longer survival",93 % of control
same,T/C,"endpoint: median survival time, dose: 40.0 mg/kg/injection, schedule: Q04DX002 (ip), vehicle: saline with Tween-80, higher = longer survival",114 % of control
same,T/C,"endpoint: median survival time, dose: 80.0 mg/kg/injection, schedule: Q04DX002 (ip), vehicle: saline with Tween-80, higher = longer survival",86 % of control
same,T/C,"endpoint: median survival time, dose: 160.0 mg/kg/injection, schedule: Q04DX002 (ip), vehicle: saline with Tween-80, higher = longer survival",90 % of control
CC/C(=C(/CC)c1ccc(O)cc1)c1ccc(O)cc1,T/C,"endpoint: median survival time, dose: 6.0 mg/kg/injection, schedule: Q01DX009 (ip), vehicle: Klucel (hydroxypropylcellulose) (HPC), higher = longer survival",93 % of control
same,T/C,"endpoint: median survival time, dose: 12.0 mg/kg/injection, schedule: Q01DX009 (ip), vehicle: Klucel (hydroxypropylcellulose) (HPC), higher = longer survival",100 % of control
same,T/C,"endpoint: median survival time, dose: 24.0 mg/kg/injection, schedule: Q01DX009 (ip), vehicle: Klucel (hydroxypropylcellulose) (HPC), higher = longer survival",106 % of control
same,T/C,"endpoint: median survival time, dose: 48.0 mg/kg/injection, schedule: Q01DX009 (ip), vehicle: Klucel (hydroxypropylcellulose) (HPC), higher = longer survival",97 % of control
